Results: the NIST ThermoML archive (doi:10.1021/acs.jced.6b00563)

Tests used:
[1] = 100 kPa, Liquid; for viscosity: Falling or rolling sphere viscometry; for speed of sound: Sing-around technique in a fixed-path interferometer; for mass density: Vibrating tube method
[2] = refractive index (Na D-line) (dimensionless); details: 100 kPa, Liquid, Standard Abbe refractometry
[3] = an = ratio of the nth substance listed; details: 100 kPa, Liquid, a1 = 2; for viscosity: Falling or rolling sphere viscometry; for speed of sound: Sing-around technique in a fixed-path interferometer; for mass density: Vibrating tube method
[4] = refractive index (Na D-line) (dimensionless); an = ratio of the nth substance listed; details: 100 kPa, Liquid, Standard Abbe refractometry, a1 = 2

CCO [ethanol]
Details | mass density, [1] [kg/m3] | refractive index, [2] | speed of sound, [1] [m/s] | viscosity, [1] [mPa·s]
298.15 K | 785.06 | 1.35905 | 1143 | 1.083
308.15 K | 776.4 | 1.35501 | 1109 | 0.901
318.15 K | 767.6 | 1.35083 | 1075 | 0.758

CCCCO [butan-1-ol]
Details | mass density, [1] [kg/m3] | refractive index, [2] | speed of sound, [1] [m/s] | viscosity, [1] [mPa·s]
298.15 K | 805.75 | 1.39697 | 1240 | 2.568
308.15 K | 798.06 | 1.39281 | 1206 | 1.998
318.15 K | 790.22 | 1.38857 | 1173 | 1.578

CC(=O)CCC(=O)O [4-oxopentanoic acid] + C[N+](C)(C)CCO.[Cl-]
Details | mass density, [3] [kg/m3] | refractive index, [4] | speed of sound, [3] [m/s] | viscosity, [3] [mPa·s]
293.15 K | 1141.05 | 1.46987 | 1764 | 365.3
298.15 K | 1137.7 | 1.46867 | 1749 | 255.8
303.15 K | 1134.34 | 1.4673 | 1734 | 185.5
308.15 K | 1130.99 | 1.46595 | 1720 | 136.5
313.15 K | 1127.63 | 1.46457 | 1707 | 103.7
318.15 K | 1124.3 | 1.4632 | 1693 | 81.5
323.15 K | 1120.98 | 1.4618 | 1680 | 64.8
328.15 K | 1117.68 | 1.46041 | 1667 | 51.7
333.15 K | 1114.69 | 1.45902 | 1654 | 43
338.15 K | 1111.41 | 1.45761 | 1641 | 34.1
343.15 K | 1108.1 | 1.45623 | 1628 | 28.6

CCCO [propan-1-ol]
Details | mass density, [1] [kg/m3] | refractive index, [2] | speed of sound, [1] [m/s] | viscosity, [1] [mPa·s]
298.15 K | 799.69 | 1.38275 | 1209 | 1.943
308.15 K | 792.76 | 1.37857 | 1175 | 1.549
318.15 K | 784.45 | 1.37421 | 1141 | 1.252

CCCCCO [pentan-1-ol]
Details | mass density, [1] [kg/m3] | refractive index, [2] | speed of sound, [1] [m/s] | viscosity, [1] [mPa·s]
298.15 K | 810.88 | 1.40752 | 1276 | 3.502
308.15 K | 803.5 | 1.40352 | 1242 | 2.662
318.15 K | 795.98 | 1.39942 | 1209 | 2.061
